Test results reported in PubChem BioAssay AID330 (DTP/NCI, 2004).
“And” between values parts separate entries of the source, which are not always exact repeats. Equal entries are not always repeated. Toxic doses and inconclusive results are not listed. Rule for the calls: active = survival T/C of 150% or more; inactive = T/C below 125% in these data.

Test system: P388 leukemia ip, CD2F1 mice, survival T/C
Experiment: NCI In Vivo Anticancer Drug Screen. Data for tumor model P388 Leukemia (intraperitoneal) in CD2F1 (CDF1) mice
Conditions: endpoint: median survival time, higher = longer survival
In short: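 Mice carrying the transplanted tumor received test compound or vehicle. Survival was recorded in each group, and the value is the treated-group measurement divided by that of the vehicle-treated control group.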

[1] = dose: 60.0 mg/kg/injection, schedule: Q01DX005 (ip), vehicle: saline with Tween-80
[2] = dose: 120.0 mg/kg/injection, schedule: Q01DX005 (ip), vehicle: saline with Tween-80
[3] = dose: 100.0 mg/kg/injection, schedule: Q04DX002 (ip), vehicle: saline with Tween-80
[4] = dose: 200.0 mg/kg/injection, schedule: Q04DX002 (ip), vehicle: saline with Tween-80
[5] = dose: 400.0 mg/kg/injection, schedule: Q04DX002 (ip), vehicle: saline with Tween-80
[6] = dose: 25.0 mg/kg/injection, schedule: Q01DX009 (ip), vehicle: Klucel (hydroxypropylcellulose) (HPC)
[7] = dose: 50.0 mg/kg/injection, schedule: Q01DX009 (ip), vehicle: Klucel (hydroxypropylcellulose) (HPC)
[8] = dose: 100.0 mg/kg/injection, schedule: Q01DX009 (ip), vehicle: Klucel (hydroxypropylcellulose) (HPC)
[9] = dose: 200.0 mg/kg/injection, schedule: Q01DX009 (ip), vehicle: Klucel (hydroxypropylcellulose) (HPC)
[10] = dose: 25.0 mg/kg/injection, schedule: Q01DX005 (ip), vehicle: saline
[11] = dose: 50.0 mg/kg/injection, schedule: Q01DX005 (ip), vehicle: saline
[12] = dose: 100.0 mg/kg/injection, schedule: Q01DX005 (ip), vehicle: saline
[13] = dose: 50.0 mg/kg/injection, schedule: Q01DX005 (ip), vehicle: saline with Tween-80
[14] = dose: 100.0 mg/kg/injection, schedule: Q01DX005 (ip), vehicle: saline with Tween-80
[15] = dose: 200.0 mg/kg/injection, schedule: Q01DX005 (ip), vehicle: saline with Tween-80
[16] = dose: 6.25 mg/kg/injection, schedule: Q01DX005 (ip), vehicle: Klucel (hydroxypropylcellulose) (HPC)
[17] = dose: 12.5 mg/kg/injection, schedule: Q01DX005 (ip), vehicle: Klucel (hydroxypropylcellulose) (HPC)
[18] = dose: 25.0 mg/kg/injection, schedule: Q01DX005 (ip), vehicle: Klucel (hydroxypropylcellulose) (HPC)
[19] = dose: 50.0 mg/kg/injection, schedule: Q01DX009 (ip), vehicle: saline
[20] = dose: 100.0 mg/kg/injection, schedule: Q01DX009 (ip), vehicle: saline
[21] = dose: 200.0 mg/kg/injection, schedule: Q01DX009 (ip), vehicle: saline
[22] = dose: 50.0 mg/kg/injection, schedule: Q01DX009 (ip), vehicle: saline with Tween-80
[23] = dose: 100.0 mg/kg/injection, schedule: Q01DX009 (ip), vehicle: saline with Tween-80
[24] = dose: 200.0 mg/kg/injection, schedule: Q01DX009 (ip), vehicle: saline with Tween-80

Measured: T/C

CC(=O)c1ccc(N=C(C#N)C2=C(O)c3ccccc3C2=O)cc1
inactive: [1] 115 % of control | [2] 120 % of control

CCCCCNCC(=O)ON1CCCC1C(=O)NC(Cc1ccccc1)C(=O)NC(CC(C)C)C(=O)O (stereo unspecified)
inactive: [3] 104 % of control | [4] 101 % of control | [5] 101 % of control

O=C(N=Nc1c(Cl)c(O)c2ccccc2c1O)C(F)(F)F
inactive: dose: 1.56 mg/kg/injection, schedule: Q01DX009 (ip), vehicle: saline with Tween-80 101 % of control | dose: 3.13 mg/kg/injection, schedule: Q01DX009 (ip), vehicle: saline with Tween-80 110 % of control | dose: 6.25 mg/kg/injection, schedule: Q01DX009 (ip), vehicle: saline with Tween-80 115 % of control

COc1cc(CC2NCCc3cc(O)c(O)cc32)cc(OC)c1OC (stereo unspecified)
inactive: [6] 103 % of control | [7] 100 % of control and 113 % of control | [8] 106 % of control and 111 % of control | [9] 108 % of control

CC/C(=N/NS(=O)(=O)c1ccc(C)cc1)c1ccc([N+](=O)[O-])cc1
inactive: dose: 100.0 mg/kg/injection, schedule: Q04DX002 (ip), vehicle: saline 100 % of control | dose: 200.0 mg/kg/injection, schedule: Q04DX002 (ip), vehicle: saline 105 % of control | dose: 400.0 mg/kg/injection, schedule: Q04DX002 (ip), vehicle: saline 100 % of control

O=C1/C(=C/c2ccc(/C=C3\CCc4ccccc4C3=O)cc2)CCc2ccccc21
inactive: [7] 102 % of control | [8] 99 % of control | [9] 101 % of control

Cc1cc(N=Nc2ccc(NC(=O)c3ccc(N)cc3)cc2C)ccc1N=Nc1ccc2c(O)c(N=Nc3ccc(S(=O)(=O)O)cc3)c(S(=O)(=O)O)cc2c1
inactive: dose: 12.5 mg/kg/injection, schedule: Q01DX005 (ip), vehicle: saline 100 % of control | [10] 105 % of control | [11] 105 % of control and 108 % of control | [12] 103 % of control

CCCCCCCCCCCC[N+](C)(C)C (tested in a mixture with another compound)
inactive: dose: 6.25 mg/kg/injection, schedule: Q01DX009 (ip), vehicle: Klucel (hydroxypropylcellulose) (HPC) 113 % of control | dose: 12.5 mg/kg/injection, schedule: Q01DX009 (ip), vehicle: Klucel (hydroxypropylcellulose) (HPC) 114 % of control | [6] 114 % of control

O=C(CCN1CCCC1)Nc1nc(-c2ccc(Cl)cc2)cs1
inactive: [13] 102 % of control | [14] 93 % of control | [15] 94 % of control

COC(=O)C1=C(C(=O)OC)NC2=C(C=N1)CCC2
inactive: [1] 102 % of control | [2] 94 % of control | dose: 240.0 mg/kg/injection, schedule: Q01DX005 (ip), vehicle: saline with Tween-80 91 % of control

CCN(CC)C(=NC(C)(C)C)c1ccccc1
inactive: dose: 3.12 mg/kg/injection, schedule: Q01DX009 (ip), vehicle: saline 101 % of control and 93 % of control and 97 % of control | [16] 107 % of control | dose: 6.25 mg/kg/injection, schedule: Q01DX009 (ip), vehicle: saline 96 % of control and 97 % of control | [17] 100 % of control | [18] 107 % of control | [19] 99 % of control

OC1CCc2ncccc2O1 (stereo unspecified)
inactive: [19] 102 % of control | [20] 102 % of control | [21] 102 % of control

Cc1ccc(S(=O)(=O)NC(=O)n2nc(C)cc2C)cc1
inactive: dose: 50.0 mg/kg/injection, schedule: Q01DX005 (ip), vehicle: Klucel (hydroxypropylcellulose) (HPC) 96 % of control | dose: 100.0 mg/kg/injection, schedule: Q01DX005 (ip), vehicle: Klucel (hydroxypropylcellulose) (HPC) 96 % of control | dose: 200.0 mg/kg/injection, schedule: Q01DX005 (ip), vehicle: Klucel (hydroxypropylcellulose) (HPC) 103 % of control

O=C(O)Cn1cc(I)c(=O)c(I)c1
inactive: [22] 102 % of control | [23] 112 % of control | [20] 101 % of control | [24] 110 % of control | [21] 105 % of control | dose: 400.0 mg/kg/injection, schedule: Q01DX009 (ip), vehicle: saline with Tween-80 112 % of control | dose: 400.0 mg/kg/injection, schedule: Q01DX009 (ip), vehicle: saline 102 % of control | dose: 600.0 mg/kg/injection, schedule: Q01DX009 (ip), vehicle: saline 101 % of control

Nc1[nH]cnc(=S)c1N
inactive: [3] 106 % of control | [4] 102 % of control | [5] 106 % of control

Cc1c([N+](=O)[O-])c(=O)oc2ccc3c(=O)ccoc3c12
inactive: [13] 98 % of control | [14] 96 % of control | [15] 99 % of control

Cc1ccccc1N=Nc1c(O)n(-c2ccc(Cl)cc2)c(=S)n(-c2ccc(Br)cc2)c1=O
inactive: [3] 96 % of control | [4] 105 % of control | [5] 91 % of control

COc1cccc2c1C(=O)c1c(O)c3c(c(O)c1C2=O)C[C@@](O)(C(C)=O)[C@@H](OC)[C@@H]3OC1CC(N)C(O)C(C)O1 (stereo partly specified)
inactive: dose: 0.6 mg/kg/injection, schedule: Q04DX003 (ip), vehicle: water 103 % of control | dose: 1.2 mg/kg/injection, schedule: Q04DX003 (ip), vehicle: water 122 % of control | dose: 2.4 mg/kg/injection, schedule: Q04DX003 (ip), vehicle: water 108 % of control | dose: 2.5 mg/kg/injection, schedule: Q04DX003 (ip), vehicle: water 108 % of control | dose: 4.8 mg/kg/injection, schedule: Q04DX003 (ip), vehicle: water 123 % of control | dose: 5.0 mg/kg/injection, schedule: Q04DX003 (ip), vehicle: water 108 % of control

Nc1cccc(C(=O)O)c1O
inactive: [19] 100 % of control | [20] 106 % of control | [21] 104 % of control

COc1ccc(CSC(=S)Nc2ccc(F)c(C)c2)cc1
inactive: dose: 50.0 mg/kg/injection, schedule: Q01DX009 (ip), vehicle: suspension in saline 99 % of control | dose: 100.0 mg/kg/injection, schedule: Q01DX009 (ip), vehicle: suspension in saline 99 % of control

C=CC/C(=N\OS(=O)(=O)O)SC1OC(CO)C(O)C(O)C1O (stereo unspecified)
inactive: [10] 92 % of control and 98 % of control | [11] 102 % of control [middle of 4 runs] | [12] 101 % of control and 102 % of control and 104 % of control | dose: 200.0 mg/kg/injection, schedule: Q01DX005 (ip), vehicle: saline 100 % of control and 101 % of control and 98 % of control

COc1ccc2c(=O)cc(-c3ccccc3)sc2c1
inactive: dose: 60.0 mg/kg/injection, schedule: Q01DX005 (ip), vehicle: Klucel (hydroxypropylcellulose) (HPC) 106 % of control | dose: 120.0 mg/kg/injection, schedule: Q01DX005 (ip), vehicle: Klucel (hydroxypropylcellulose) (HPC) 104 % of control | dose: 240.0 mg/kg/injection, schedule: Q01DX005 (ip), vehicle: Klucel (hydroxypropylcellulose) (HPC) 98 % of control

CCCNC(=O)NS(=O)(=O)c1ccc(Cl)cc1
inactive: dose: 50.0 mg/kg/injection, schedule: Q04DX003 (ip), vehicle: saline with Tween-80 102 % of control | dose: 100.0 mg/kg/injection, schedule: Q04DX003 (ip), vehicle: saline with Tween-80 109 % of control | dose: 200.0 mg/kg/injection, schedule: Q04DX003 (ip), vehicle: saline with Tween-80 100 % of control

CCCCCCCOC(=O)c1ccc(O)cc1
inactive: dose: 12.5 mg/kg/injection, schedule: Q01DX009 (ip), vehicle: saline with Tween-80 105 % of control | dose: 25.0 mg/kg/injection, schedule: Q01DX009 (ip), vehicle: saline with Tween-80 100 % of control | [22] 99 % of control and 96 % of control | [23] 95 % of control

NNP(=S)(NN)Oc1ccccc1
inactive: [16] 96 % of control | [17] 114 % of control | [18] 105 % of control

Oc1ccccc1/C=N/C(/N=C/c1ccccc1O)c1ccccc1O
inactive: [22] 100 % of control | [23] 101 % of control | [24] 100 % of control
